Values of other authors as cited in patent US10179172B2, “Liquid pharmaceutical formulations for injection comprising yellow 5 or orange G and uses thereof” (EAGLE BIOLOGICS, INC., priority 2013, dated 2019).
Values joined by “and” are separate entries in the source; they are usually repeats but may differ in a detail not shown here. Equal entries are not always repeated.

How the values were obtained:
[1] = long-term clinical outcomes
[2] = test system: respiratory syncytial virus; details: two Phase III clinical trials, pediatric population

Row | Substance | Patients achieving clinical remission [1] [%] | Reduction of the risk of hospitalization due to respiratory syncytial virus infection [2]
1 | vedolizumab: mAb being developed by Millennium Pharmaceuticals for ulcerative colitis and Crohn's disease | ~60 | –
2 | palivizumab: humanized mAb directed against an epitope in the A antigenic site of the F protein of respiratory syncytial virus | – | 55% and 45%
